Experimental data as given in the supplement of paper PMC6045584.
± gives the standard deviation of the averaged measurements.

Key:
17-AAG = compound: C=CCNC1=C2C[C@@H](C)C[C@H](OC)[C@H](O)[C@@H](C)/C=C(\C)[C@H](OC(N)=O)[C@@H](OC)/C=C\C=C(/C)C(=O)NC(=CC1=O)C2=O [17-AAG]; test: area under dose-response curve of surviving fraction (unscaled, Aref=0) (surviving fraction x log10(nM)); higher = more resistant; conditions: exposure time: 5 days; dose range 0.5-1000 nM
In short: (§1)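 Tumour cell lines in 384-well plates were exposed to eight inhibitor concentrations, from 0.5 to 1000 nM, for five days, and viability was read by CellTiter-Glo luminescence in three screens per line. Signals were normalised to DMSO-only wells, and 3-parameter logistic regression in the drc R package fitted dose-response survival curves to the surviving fractions. Area under the curve is given as the unscaled activity area. That area is taken over log10 dose with Aref = 0.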

[1] = compound: CCN(CC)CCCCNc1ncc2cc(-c3cc(OC)cc(OC)c3)c(NC(=O)NC(C)(C)C)nc2n1; test: as above; conditions: exposure time: 5 days; dose range 0.5-1000 nM
In short: as §1

SALINOMYCIN = compound: CC[C@@H](C(=O)[C@@H](C)[C@@H](O)[C@H](C)[C@@H]1O[C@@H]([C@@H](CC)C(=O)O)CC[C@@H]1C)[C@H]1O[C@]2(C=C[C@@H](O)[C@]3(CC[C@@](C)([C@H]4CC[C@](O)(CC)[C@H](C)O4)O3)O2)[C@H](C)C[C@@H]1C [SALINOMYCIN]; test: as above; conditions: exposure time: 5 days; dose range 0.5-1000 nM
In short: as §1

ABT-737 [2] = compound: T1, CN(C)CC[C@H](CSc1ccccc1)Nc1ccc(S(=O)(=O)NC(=O)c2ccc(N3CCN(Cc4ccccc4-c4ccc(Cl)cc4)CC3)cc2)cc1[N+](=O)[O-] [ABT-737]; test: as above; conditions: exposure time: 5 days; dose range 0.5-1000 nM
In short: as §1

FLAVOPIRIDOL [3] = compound: T2, CN1CC[C@H](c2c(O)cc(O)c3c(=O)cc(-c4ccccc4Cl)oc23)[C@H](O)C1 [FLAVOPIRIDOL]; test: as above; conditions: exposure time: 5 days; dose range 0.5-1000 nM
In short: as §1

2-METHOXYESTRADIOL [4] = compound: T3, COc1cc2c(cc1O)CC[C@@H]1[C@@H]2CC[C@]2(C)[C@@H](O)CC[C@@H]12 [2-METHOXYESTRADIOL]; test: as above; conditions: exposure time: 5 days; dose range 0.5-1000 nM
In short: as §1

NUTLIN3 = compound: COc1ccc(C2=N[C@@H](c3ccc(Cl)cc3)[C@@H](c3ccc(Cl)cc3)N2C(=O)N2CCNC(=O)C2)c(OC(C)C)c1 [NUTLIN3]; test: as above; conditions: exposure time: 5 days; dose range 0.5-1000 nM
In short: as §1

DOXORUBICIN = compound: COc1cccc2c1C(=O)c1c(O)c3c(c(O)c1C2=O)C[C@@](O)(C(=O)CO)C[C@@H]3O[C@H]1C[C@H](N)[C@H](O)[C@H](C)O1 [DOXORUBICIN]; test: as above; conditions: exposure time: 5 days; dose range 0.5-1000 nM
In short: as §1

LAPATINIB [5] = compound: T4, CS(=O)(=O)CCNCc1ccc(-c2ccc3ncnc(Nc4ccc(OCc5cccc(F)c5)c(Cl)c4)c3c2)o1 [LAPATINIB]; test: as above; conditions: exposure time: 5 days; dose range 0.5-1000 nM
In short: as §1

VISMODEGIB = compound: CS(=O)(=O)c1ccc(C(=O)Nc2ccc(Cl)c(-c3ccccn3)c2)c(Cl)c1 [VISMODEGIB]; test: as above; conditions: exposure time: 5 days; dose range 0.5-1000 nM
In short: as §1

DECITABINE [6] = compound: T5, Nc1ncn([C@H]2C[C@H](O)[C@@H](CO)O2)c(=O)n1 [DECITABINE]; test: as above; conditions: exposure time: 5 days; dose range 0.5-1000 nM
In short: as §1

FLUOROURACIL [7] = compound: T6, O=c1[nH]cc(F)c(=O)[nH]1 [FLUOROURACIL]; test: as above; conditions: exposure time: 5 days; dose range 0.5-1000 nM
In short: as §1

RESVERATROL [8] = compound: T7, Oc1ccc(/C=C/c2cc(O)cc(O)c2)cc1 [RESVERATROL]; test: as above; conditions: exposure time: 5 days; dose range 0.5-1000 nM
In short: as §1

ABT-737 [9] = compound: T1, ABT-737; test: surviving fraction relative to DMSO-only wells; higher = less growth inhibition; conditions: exposure time: 5 days
In short: (§2)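 Viability was determined by CellTiter-Glo luminescence, expressed as surviving fraction normalised to the median of DMSO-only wells. The cells were log-phase tumour cell lines seeded at 250–500 per well in 384-well plates and, after 24 hours, exposed continuously for five days to inhibitors at 0.5, 1, 5, 10, 50, 100, 500 and 1000 nM. Three screens per line were run, keeping only lines with replicate Pearson r >0.7 and median Z' >0.3.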

FLAVOPIRIDOL [10] = compound: T2, FLAVOPIRIDOL; test: as above; conditions: exposure time: 5 days
In short: as §2

2-METHOXYESTRADIOL [11] = compound: T3, 2-METHOXYESTRADIOL; test: as above; conditions: exposure time: 5 days
In short: as §2

LAPATINIB [12] = compound: T4, LAPATINIB; test: as above; conditions: exposure time: 5 days
In short: as §2

DECITABINE [13] = compound: T5, DECITABINE; test: as above; conditions: exposure time: 5 days
In short: as §2

FLUOROURACIL [14] = compound: T6, FLUOROURACIL; test: as above; conditions: exposure time: 5 days
In short: as §2

RESVERATROL [15] = compound: T7, RESVERATROL; test: as above; conditions: exposure time: 5 days
In short: as §2

For HS57T LUNG, the “area under dose-response curve” value (17-AAG) was 1.35, the “area under dose-response curve” value [1] was 2.66 and the “area under dose-response curve” value (SALINOMYCIN) was 2.57. For the same test system, the “area under dose-response curve” value (ABT-737 [2]) was 3.45, the “area under dose-response curve” value (FLAVOPIRIDOL [3]) was 2.07 and the “area under dose-response curve” value (2-METHOXYESTRADIOL [4]) was 2.78. The “area under dose-response curve” value (NUTLIN3) was 3.4, the “area under dose-response curve” value (DOXORUBICIN) was 1.22 and the “area under dose-response curve” value (LAPATINIB [5]) was 3.42. The “area under dose-response curve” value (VISMODEGIB) was 3.29, the “area under dose-response curve” value (DECITABINE [6]) was 3.05 and the “area under dose-response curve” value (FLUOROURACIL [7]) was 3.24. For the same test system, the “area under dose-response curve” value (RESVERATROL [8]) was 3.35.
CCK81 LARGE INTESTINE was tested, and the surviving fraction (ABT-737 [9]; 0.5 nM) was 0.869 ± 0.15, the surviving fraction (ABT-737 [9]; 1 nM) was 0.887 ± 0.025 and the surviving fraction (ABT-737 [9]; 5 nM) was 0.83 ± 0.11. The surviving fraction (ABT-737 [9]; 10 nM) was 0.847 ± 0.077, the surviving fraction (ABT-737 [9]; 50 nM) was 0.859 ± 0.11 and the surviving fraction (ABT-737 [9]; 100 nM) was 0.724 ± 0.13. For the same test system, the surviving fraction (ABT-737 [9]; 500 nM) was 0.678 ± 0.071, the surviving fraction (ABT-737 [9]; 1000 nM) was 0.695 ± 0.053 and the surviving fraction (FLAVOPIRIDOL [10]; 0.5 nM) was 0.883 ± 0.13. It also gave a surviving fraction (FLAVOPIRIDOL [10]; 1 nM) of 0.817 ± 0.082, a surviving fraction (FLAVOPIRIDOL [10]; 5 nM) of 0.785 ± 0.15 and a surviving fraction (FLAVOPIRIDOL [10]; 10 nM) of 0.813 ± 0.1. It also gave a surviving fraction (FLAVOPIRIDOL [10]; 50 nM) of 0.416 ± 0.062, a surviving fraction (FLAVOPIRIDOL [10]; 100 nM) of 0.0273 ± 0.011 and a surviving fraction (FLAVOPIRIDOL [10]; 500 nM) of 0.0177 ± 0.0015. The surviving fraction (FLAVOPIRIDOL [10]; 1000 nM) was 0.0203 ± 0.00058, the surviving fraction (2-METHOXYESTRADIOL [11]; 0.5 nM) was 0.764 ± 0.17 and the surviving fraction (2-METHOXYESTRADIOL [11]; 1 nM) was 0.801 ± 0.13. The surviving fraction (2-METHOXYESTRADIOL [11]; 5 nM) was 0.773 ± 0.027, the surviving fraction (2-METHOXYESTRADIOL [11]; 10 nM) was 0.752 ± 0.059 and the surviving fraction (2-METHOXYESTRADIOL [11]; 50 nM) was 0.776 ± 0.076. It also gave a surviving fraction (2-METHOXYESTRADIOL [11]; 100 nM) of 0.779 ± 0.03, a surviving fraction (2-METHOXYESTRADIOL [11]; 500 nM) of 0.574 ± 0.076 and a surviving fraction (2-METHOXYESTRADIOL [11]; 1000 nM) of 0.249 ± 0.02. For the same test system, the surviving fraction (LAPATINIB [12]; 0.5 nM) was 0.728 ± 0.083, the surviving fraction (LAPATINIB [12]; 1 nM) was 0.751 ± 0.054 and the surviving fraction (LAPATINIB [12]; 5 nM) was 0.826 ± 0.17. The surviving fraction (LAPATINIB [12]; 10 nM) was 0.751 ± 0.074, the surviving fraction (LAPATINIB [12]; 50 nM) was 0.65 ± 0.16 and the surviving fraction (LAPATINIB [12]; 100 nM) was 0.536 ± 0.024. The surviving fraction (LAPATINIB [12]; 500 nM) was 0.082 ± 0.017, the surviving fraction (LAPATINIB [12]; 1000 nM) was 0.0653 ± 0.0081 and the surviving fraction (DECITABINE [13]; 0.5 nM) was 0.759 ± 0.099. The surviving fraction (DECITABINE [13]; 1 nM) was 0.761 ± 0.034, the surviving fraction (DECITABINE [13]; 5 nM) was 0.578 ± 0.11 and the surviving fraction (DECITABINE [13]; 10 nM) was 0.707 ± 0.12. The surviving fraction (DECITABINE [13]; 50 nM) was 0.367 ± 0.058, the surviving fraction (DECITABINE [13]; 100 nM) was 0.348 ± 0.035 and the surviving fraction (DECITABINE [13]; 500 nM) was 0.308 ± 0.035. For the same test system, the surviving fraction (DECITABINE [13]; 1000 nM) was 0.286 ± 0.094, the surviving fraction (FLUOROURACIL [14]; 0.5 nM) was 0.849 ± 0.12 and the surviving fraction (FLUOROURACIL [14]; 1 nM) was 0.804 ± 0.081. It also gave a surviving fraction (FLUOROURACIL [14]; 5 nM) of 0.764 ± 0.086, a surviving fraction (FLUOROURACIL [14]; 10 nM) of 0.835 ± 0.13 and a surviving fraction (FLUOROURACIL [14]; 50 nM) of 0.851 ± 0.079. The surviving fraction (FLUOROURACIL [14]; 100 nM) was 0.751 ± 0.075, the surviving fraction (FLUOROURACIL [14]; 500 nM) was 0.775 ± 0.042 and the surviving fraction (FLUOROURACIL [14]; 1000 nM) was 0.609 ± 0.084. It also gave a surviving fraction (RESVERATROL [15]; 0.5 nM) of 0.73 ± 0.017, a surviving fraction (RESVERATROL [15]; 1 nM) of 0.79 ± 0.13 and a surviving fraction (RESVERATROL [15]; 5 nM) of 0.71 ± 0.065. It also gave a surviving fraction (RESVERATROL [15]; 10 nM) of 0.724 ± 0.037, a surviving fraction (RESVERATROL [15]; 50 nM) of 0.671 ± 0.058 and a surviving fraction (RESVERATROL [15]; 100 nM) of 0.793 ± 0.11. For the same test system, the surviving fraction (RESVERATROL [15]; 500 nM) was 0.844 ± 0.085, the surviving fraction (RESVERATROL [15]; 1000 nM) was 0.728 ± 0.039 and the “area under dose-response curve” value (ABT-737 [2]) was 2.64. The “area under dose-response curve” value (FLAVOPIRIDOL [3]) was 1.69, the “area under dose-response curve” value (2-METHOXYESTRADIOL [4]) was 2.32 and the “area under dose-response curve” value (LAPATINIB [5]) was 1.95. The “area under dose-response curve” value (DECITABINE [6]) was 1.69, the “area under dose-response curve” value (FLUOROURACIL [7]) was 2.58 and the “area under dose-response curve” value (RESVERATROL [8]) was 2.47.
